Results reported in patent US9321772B2, “Substituted pyrazolo[3,4-D]pyrimidines and uses thereof” (The Regents of the University of California, priority 2011, dated 2016).
“Also recorded” adds a separate entry of the source.

Columns and labels:
[1] = system: TT (MEN2A) thyroid cancer cells; test: TT cell viability (MTT assay); format: cell-based, human
Protocol: FIG. 18A-18D. […] FIG. 18A. MEN2B (MZ) thyroid cancer cells were treated with the indicated concentrations of each inhibitor (7 days) and cell viability was quantitated by MTT assay. FIG. 18B. MEN2A (TT) thyroid cancer cells were treated with the indicated concentrations of each inhibitor (7 days) and cell viability was quantitated by MTT assay. FIG. 18C. […] Change in tumor volume was calculated per mouse. Values shown are the median percent change per group. 20 and 10 animals for vehicle and drug treated mice, respectively, were analyzed. FIG. 18D. Body weight measurements of AD80, Vandetanib (VD) and vehicle treated nude mice transplanted with TT cells. Values shown are the median of 20 and 10 animals for vehicle and drug treated mice, respectively.

[2] = system: MEN2B (MZ) thyroid cancer cells; test: Immunoblot analysis of drug-treated MZ cells; format: cell-based, human; conditions: for phospho-Ret and downstream biomarkers: 1 hour of treatment; for cell death (protein markers of apoptosis): 3 days, 2 μM
Protocol: FIG. 19. […] MEN2A (TT) and MEN2B (MZ) thyroid cancer cells were treated with the indicated drugs for 3 days at a final concentration of 2 μM. Cell lystates were immunoblotted for protein markers of apoptosis. Vandetanib (vand.) was included for comparison.
FIG. 20A-20B. […] FIG. 20A. MEN2B (MZ) and FIG. 20B. MEN2A (TT) thyroid cancer cells were treated with the indicated concentrations of drug. Following 1 hour of treatment, cells were harvested and lysates prepared for immunoblotting to detect the indicated proteins. VD=vandetanib; SF=sorafenib.

[3] = system: ptc>dRet^MEN2B flies; test: Drosophila ptc>dRetMEN2B viability assay; format: in vivo; conditions: for notum, scutellum and cuticle defects of ptc>dRetMEN2B adults: drug fed flies; for effect of reducing erk gene dosage on drug efficacy in viability assay: ptc>dRetMEN2B
Text: FIG. 1A. Suppression of Ret^MEN2B-induced developmental block and whole animal toxicity were scored based on number of embryos (n) that survived as pupae (x) and adults (y). Drugs were mixed into food and fed to flies starting at larval stages.
FIG. 1B. Percent viability of control or drug treated flies determined for pupae (x/n) and adults (y/n).
Described herein is a Drosophila MEN2B model in which an intracellular mutation in the Drosophila Ret ortholog (dRet) was targeted to the eye (Read, R. D. et al., Genetics, 2005. 171(3): p. 1057-81). […] The screen is conducted in developing drosophila embryos. Under normal circumstances, drosophila embryos pass through four developmental steps: embryo→larvae→pupae→adult. […] We calibrated the ptc>dRetMEN2B assay to permit 50% survival to pupariation and 0% survival to adulthood. Mutated forms of RET are believed to be causative in human thyroid cancers including multiple endocrine neoplasia types 2A and 2B (MEN2A and MEN2B). The screen identifies small molecules that (a) suppress the toxicity induced by oncogenic RET and (b) allow flies to develop to functional adults. […] 64(19): p. 7099-109; Sun, L. et al., J Med Chem, 2003. 46(7): p.

[4] = system: ptc>dRet^MEN2B wing cells; test: Wing-based assay for transformation and cell migration (ptc>dRetMEN2B); format: in vivo, Drosophila; conditions: oral administration
Text: FIG. 4E. Quantification of ptc>dRet^MEN2B phenotypes. Invasion was established by scoring for single/groups of GFP-labeled cells that relocated away from the ptc boundary (FIG. 4C, asterisks). Basal migration was scored as indentation of the apical surface (see FIG. 2B, arrows). Proliferation was scored as significant widening of the ptc boundary. The number of wings analyzed under each condition is indicated in brackets.
We previously developed a wing-based assay for transformation and cell migration that we utilized to explore Ras- and Src-based tumorigenesis (Vidal, M., D. E. Larson, and R. L. Cagan, Dev Cell, 2006. 10(1): p. 33-44). In this assay, the ptc-GAL4 driver directed oncogene expression in a stripe along the anterior-posterior axis; oncogene-based transformation led to over-proliferation, epithelial-to-mesenchymal transition (EMT), and cell migration away from the ptc domain.

[5] = system: 266 kinases (approximately one-half of the human kinome); test: Kinome-wide in vitro kinase profiling; format: biochemical; conditions: 1 μM; among AD36, AD57, AD58
Text: (§1) FIG. 6A-6C Select Screen Inhibition Data for Tyrosine Kinases. Percent inhibition of kinase activity. Dark gray is greater than 80% inhibition, white is 40-80% inhibition, and light gray is less than 40% inhibition. Hashed boxes indicate no useful data was obtained. Full assay conditions described at www.invitrogen.com/kinaseprofiling.
as §1, with “7A-7F” for “6A-6C”, “Serine/Threonine” for “Tyrosine”
as §1, with “8” for “6A-6C”, “Lipid” for “Tyrosine”
Using in vitro kinase assays we tested AD57, AD36, and AD58 at 1 μM for activity against approximately one-half of the human kinome (FIG. 1E): 165 Ser/Thr kinases, 91 Tyr kinases, and 10 PI kinases were assayed, totaling 266 kinases (244 distinct kinases plus 22 mutant isoforms; see FIG. 6A-6C, FIG. 7A-7F, and FIG. 8 for measured inhibition values).

[6] = oral administration, drug mixed into food

Structure (SMILES)	inhibition of TT cell viability / proliferation, in words [1]	IC50, fold lower than Vandetanib ([1]; TT cell line, dose-response)	phospho-Ret and downstream biomarkers [2]	cell death (protein markers of apoptosis) [2]	notum, scutellum and cuticle defects of ptc>dRetMEN2B adults [3]	animals rescued / developing to adulthood [3, 6]	rescue of ptc>dRetMEN2B viability (pupae, adults), in words [3, 6]	effect of reducing dTor on drug efficacy/toxicity ([3]; ptc>dRetMEN2B dTor-/+)	effect of reducing erk gene dosage on drug efficacy in viability assay [3]	basal phospho-Src in wing epithelium [4]	suppression of dRetMEN2B-induced proliferation, EMT, invasion/basal migration [4]	number of kinases inhibited at a cutoff of greater than 80% inhibition [5]
CC(C)n1nc(-c2ccc(NC(=O)Nc3cccc(C(F)(F)F)c3)cc2)c2c(N)ncnc21 [AD57]	most potent inhibition	more than 150 fold	potent inhibitors	induce cell death	strongly suppressed; also recorded: complete suppression of notum and scutellum defects; also recorded: some cuticle defects	approximately 25%	best single-agent hit; also recorded: potently suppressed	dominantly suppressed the efficacy	considerably enhanced the efficacy	suppressed phospho-Src in basal regions of the wing epithelium	potent in vivo suppression; also recorded: strongly suppressed	most
CC(C)n1nc(-c2ccc(NC(=O)Nc3cc(C(F)(F)F)ccc3F)cc2)c2c(N)ncnc21 [AD80]	inhibited proliferation	–	potent downregulation of phospho-Ret; also recorded: potent inhibitors	induce cell death	phenotypically normal	–	improved rescue relative to AD57	–	did not alter efficacy	potently blocked	significantly improved suppression; also recorded: potently blocked	–
